Results: paper PMC12336439 (Archiv Der Pharmazie, 2025)
Where “and” joins values, the source holds several entries; their conditions need not be identical. Equal entries are not always repeated. Where two headings read alike, the source gives them in different places.

Experiments:
[1] = target: T1, USP7 (Homo sapiens, UniProt Q93009); experiment: Differential scanning fluorimetry (DSF), melting temperature shift of USP7; format: binding; conditions: 8 µM protein, 250 µM compound (1:31.25)
T1 construct: USP7 catalytic domain (USP7CD) (208‐560); made in house
Text: The influence of the synthesized compounds on the melting temperature (T m) of USP7 and its mutant USP7asoc (active site only cysteine) was investigated by DSF. USP7asoc only retains the catalytic Cys223 while all the other six cysteines are mutated to serine. DSF was selected for initial assessment since it is an efficient and rapid primary screening method readily available to our lab.
An important consideration when assessing covalent inhibitors is the time dependence of covalent target occupancy and thus potency, which is determined by the reaction kinetics of the covalent binding event. To allow for drawing conclusions on compounds with slower reaction kinetics, incubation times of 30 min, 4 h, and 24 h at 20°C were chosen for the DSF screen with USP7 (Table 1 and Figures 2 and 3). The threshold at which compounds were considered (de‐)stabilizers was defined at 0.5°C. In parallel, the intrinsic reactivity of a set of representative compounds was evaluated in a glutathione reactivity assay. […] Data obtained from the GSH reactivity studies are shown in Supporting Information S2: Table S2.1 and Figures S2.1–2.3.
The melting temperatures of USP7 and USP7asoc in the presence or absence of fragments were determined by DSF on a Qiagen Rotor‐Q Model‐5‐Plex HRM real‐time PCR instrument (Qiagen, Hilden, Germany). SYPRO Orange (Life Technologies Corporation, Eugene, OR, USA) was used as a fluorescent dye at a final concentration of 5x. The protein concentration was 8 µM, and the final compound concentration was 250 µM, corresponding to a protein‐to‐compound ratio of 1:31.25. All compounds were dissolved in dimethyl sulfoxide (DMSO) and the proteins in Tris buffer (25 mM Tris pH 8.0, 150 mM NaCl, 5 mM TCEP, 5% (v/v) DMSO). All measurements were performed after 30 min, 4 h, and 24 h of incubation and at least in triplicate. DSF experiments were carried out with a constant heating rate of 270°C/h. The temperature was ramped from 28°C to 60°C–70°C with excitation and emission filters set at 470 nm and 610 nm, respectively. The melting temperatures (T m) of USP7 and USP7asoc were determined from the maxima of the first derivatives of the melting curves in OriginPro2020 (OriginLab, Northampton, MA, USA). The ∆T m was calculated by subtraction of the T m of the protein sample with pure DMSO from the T m of the protein sample mixed with compound. Error propagation was used to average multiple runs for a compound. A compound was considered to be a hit if the shift in the ∆T m was at least 0.50°C [55].

[2] = target: T2, USP7asoc (active site only cysteine) (Homo sapiens, UniProt Q93009, C300S/C315S/C334S/C478S/C488S/C510S); experiment: Differential scanning fluorimetry (DSF), melting temperature shift of USP7asoc mutant; format: binding; conditions: 8 µM protein, 250 µM compound (1:31.25)
T2 construct: (208‐560, C300/315/334/448/478/510S); made in house
Method: USP7asoc only retains the catalytic Cys223 while all the other six cysteines are mutated to serine. DSF was selected for initial assessment since it is an efficient and rapid primary screening method readily available to our lab. […] An important consideration when assessing covalent inhibitors is the time dependence of covalent target occupancy and thus potency, which is determined by the reaction kinetics of the covalent binding event. To allow for drawing conclusions on compounds with slower reaction kinetics, incubation times of 30 min, 4 h, and 24 h at 20°C were chosen for the DSF screen with USP7 (Table 1 and Figures 2 and 3). The threshold at which compounds were considered (de‐)stabilizers was defined at 0.5°C. In parallel, the intrinsic reactivity of a set of representative compounds was evaluated in a glutathione reactivity assay. […] The expression and purification of USP7 catalytic domain (USP7CD) (208‐560) and USP7asoc (active site only cysteine) by using a pET24a(+)_HLT_USP7 construct were performed as previously described. […] For the USP7asoc, six of the seven cysteines are mutated to serines (208‐560, C300/315/334/448/478/510S). All utilized protein sequences are depicted in Supporting Information S2: Table S.3.1. The melting temperatures of USP7 and USP7asoc in the presence or absence of fragments were determined by DSF on a Qiagen Rotor‐Q Model‐5‐Plex HRM real‐time PCR instrument (Qiagen, Hilden, Germany). SYPRO Orange (Life Technologies Corporation, Eugene, OR, USA) was used as a fluorescent dye at a final concentration of 5x. The protein concentration was 8 µM, and the final compound concentration was 250 µM, corresponding to a protein‐to‐compound ratio of 1:31.25. All compounds were dissolved in dimethyl sulfoxide (DMSO) and the proteins in Tris buffer (25 mM Tris pH 8.0, 150 mM NaCl, 5 mM TCEP, 5% (v/v) DMSO). All measurements were performed after 30 min, 4 h, and 24 h of incubation and at least in triplicate. DSF experiments were carried out with a constant heating rate of 270°C/h. The temperature was ramped from 28°C to 60°C–70°C with excitation and emission filters set at 470 nm and 610 nm, respectively. The melting temperatures (T m) of USP7 and USP7asoc were determined from the maxima of the first derivatives of the melting curves in OriginPro2020 (OriginLab, Northampton, MA, USA). The ∆T m was calculated by subtraction of the T m of the protein sample with pure DMSO from the T m of the protein sample mixed with compound. Error propagation was used to average multiple runs for a compound. A compound was considered to be a hit if the shift in the ∆T m was at least 0.50°C [55].

[3] = target: T1, USP7; experiment: Intact protein MS (UHPLC-ESI-MS), covalent modification of USP7; format: binding; conditions: 24 h incubation at 20°C, protein-to-compound ratio 1:31.25
Method: The DSF results described above were validated by UHPLC‐ESI‐MS to verify possible covalent binding through a corresponding mass shift. Intact protein MS is an important screening method in irreversible‐covalent hit identification and is especially suitable for covalent fragment‐based drug discovery (FBDD). It allows for the identification of covalent binders by detecting covalent protein‐compound adducts, thus making use of the stability of the covalent bond.
USP7 was prepared in Tris buffer (25 mM Tris pH 8.0, 150 mM NaCl, 5 mM TCEP) with a protein‐to‐compound ratio of 1:31.25 and 5% (v/v) DMSO. The protein‐compound mixtures were all incubated at 20°C for 24 h on a rotating shaker. The analysis of intact protein mass was carried out using UHPLC‐ESI‐MS measurements, with data acquisition and data analysis as previously described.

[4] = target: T3, USP7asoc (Homo sapiens, UniProt Q93009, C300S/C315S/C334S/C478S/C488S/C510S); experiment: Intact protein MS (UHPLC-ESI-MS), covalent modification of USP7asoc; format: binding; conditions: 24 h incubation at 20°C, protein-to-compound ratio 1:31.25
T3 construct: (208‐560, C300/315/334/448/478/510S); made in house
Method: The DSF results described above were validated by UHPLC‐ESI‐MS to verify possible covalent binding through a corresponding mass shift. Intact protein MS is an important screening method in irreversible‐covalent hit identification and is especially suitable for covalent fragment‐based drug discovery (FBDD). It allows for the identification of covalent binders by detecting covalent protein‐compound adducts, thus making use of the stability of the covalent bond. USP7 was prepared in Tris buffer (25 mM Tris pH 8.0, 150 mM NaCl, 5 mM TCEP) with a protein‐to‐compound ratio of 1:31.25 and 5% (v/v) DMSO. The protein‐compound mixtures were all incubated at 20°C for 24 h on a rotating shaker. The analysis of intact protein mass was carried out using UHPLC‐ESI‐MS measurements, with data acquisition and data analysis as previously described.

[5] = target: T1, USP7; set-up: method as in PMID 40165995; conditions: 24 h incubation at 20°C, ratio 1:31.25; spectra reported previously; cited from earlier work
[6] = target: T3, USP7asoc; set-up: method as in PMID 40165995; conditions: 24 h incubation at 20°C, ratio 1:31.25; spectra reported previously; cited from earlier work
[7] = target: T4, USP7cd (USP7 catalytic domain) (Homo sapiens, UniProt Q93009); experiment: Ub-AMC enzyme activity assay, IC50 determination; format: biochemical; conditions: 10 nM USP7cd, 500 nM Ub-AMC, 24 h pre-incubation at 20°C
T4 construct: USP7 catalytic domain (USP7CD) (208‐560); made in house
Method: Therefore, USP7 was incubated for 24 h with ten different compound concentrations, and IC50 values were then obtained with a fluorescent DUB substrate (Ub‐AMC) (Figure 9A–F). The pre‐incubation times were chosen to account for the slow covalent binding kinetics observed in the previous experiments.
The cleavage activity of USP7cd in the presence or absence of inhibitors was measured using Ubiquitin‐Aminomethylcoumarin (Ub‐AMC) (Enzo Life Sciences GmbH, Lörrach, Germany) as a fluorogenic substrate. The fluorescence was monitored using the CLARIOstar plate reader (BMG Labtech GmbH, Ortenberg, Germany) at 25°C at 360 nm excitation and 460 nm emission wavelengths. […] Each measurement was performed at least twice in duplicate. […] Ub‐AMC was added to a final concentration of 500 nM, and the fluorescence was measured after 1 h. The normalized dose‐response semi‐logarithmic curves were fitted using OriginPro2021 and the four‐parameter logistic function.
Different concentrations of compounds were pre-incubated with USP7 for 24 h at 20 °C in a rotating shaker in 25 mM Tris pH 8.0, 150mM NaCl, 5 mM TCEP supplemented with 0.2 mg/mL bovine serum albumin (BSA). Fluorescence was measured after 1 h of the addition of Ub-AMC. The dose response semi-logarithmic curves were fitted using OriginPro2021 and the four-parameter logistic function.

[8] = target: T1, USP7; set-up: method as in PMID 40165995; conditions: hit from earlier screen of covalent kinase inhibitor library; cited from earlier work

T3 sequence (Q93009 with tags, fused parts or gaps C300S/C315S/C334S/C478S/C488S/C510S): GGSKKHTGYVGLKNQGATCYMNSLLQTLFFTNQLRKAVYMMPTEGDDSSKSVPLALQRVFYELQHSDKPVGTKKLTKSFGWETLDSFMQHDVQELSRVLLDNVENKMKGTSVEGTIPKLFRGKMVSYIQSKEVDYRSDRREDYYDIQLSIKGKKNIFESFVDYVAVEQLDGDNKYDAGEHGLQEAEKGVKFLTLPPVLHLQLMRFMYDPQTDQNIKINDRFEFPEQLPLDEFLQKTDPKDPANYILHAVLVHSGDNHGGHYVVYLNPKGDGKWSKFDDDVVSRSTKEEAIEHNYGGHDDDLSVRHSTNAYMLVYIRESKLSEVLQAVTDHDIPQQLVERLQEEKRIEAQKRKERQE
T2 sequence (Q93009 with tags, fused parts or gaps C300S/C315S/C334S/C478S/C488S/C510S): as above
T1 sequence (Q93009 with tags, fused parts or gaps): as the sequence (Q93009 with tags, fused parts or gaps C300S/C315S/C334S/C478S/C488S/C510S) above, with S96C, S111C, S130C, S274C, S284C, S306C counted along it
T4 sequence (Q93009 with tags, fused parts or gaps): as the sequence (Q93009 with tags, fused parts or gaps C300S/C315S/C334S/C478S/C488S/C510S) above, with S96C, S111C, S130C, S274C, S284C, S306C counted along it

∆T m ± SD USP7 ([1]; 30 min incubation at 20°C)	∆T m ± SD USP7 ([1]; 4 h incubation at 20°C)	∆T m ± SD USP7 ([1]; 24 h incubation at 20°C) [°C]	∆T m ± SD USP7asoc ([2]; 30 min incubation at 20°C)	∆T m ± SD USP7asoc ([2]; 4 h incubation at 20°C)	∆T m ± SD USP7asoc ([2]; 24 h incubation at 20°C) [°C]	IC50 ([7]; read-out: IC50 USP7cd)	IC50 ([7]; supplement table, read-out: Biological Activity (IC50)) [µM]	SMILES	protein species in deconvoluted mass spectrum of USP7 [3]	protein species in deconvoluted mass spectrum of USP7asoc [4]	protein species in deconvoluted mass spectrum of USP7 [5]	protein species in deconvoluted mass spectrum of USP7asoc [6]	temperature decrease with USP7 in DSF [8]
0.25 ± 0.09 °C	0.30 ± 0 °C	0.25 ± 0.09	–0.20 ± 0.09 °C	0.45 ± 0.12 °C	0.42 ± 0.16	–	–	CCCn1cc(-c2cccc3cnc(Nc4nc(Cl)ccc4[N+](=O)[O-])cc23)cn1 [8d, N‐(6‐Chloro‐3‐nitropyridin‐2‐yl)‐5‐(1‐propyl‐1H‐pyrazol‐4‐yl)isoquinolin‐3‐amine]	unmodified USP7 and USP7asoc were again dominant	unmodified USP7 and USP7asoc were again dominant	–	–	–
0.20 ± 0.09 °C	0.45 ± 0 °C	0.20 ± 0.09	0.10 ± 0.27 °C	0.10 ± 0.09 °C	0.10 ± 0.09	–	–	Cn1cc(-c2cccc3cnc(Nc4nc(Cl)ccc4[N+](=O)[O-])cc23)cn1 [8a, N‐(6‐Chloro‐3‐nitropyridin‐2‐yl)‐5‐(1‐methyl‐1H‐pyrazol‐4‐yl)isoquinolin‐3‐amine]	–	–	unmodified and mono‐arylated protein species were visible with nearly the same intensity	unmodified protein species as the main peak	–
0.25 ± 0.12 °C	0.30 ± 0 °C	0.25 ± 0.09	0.63 °C and 0.63 ± 0.07 °C	0.38 ± 0.08 °C	0.40 ± 0.17	–	–	O=[N+]([O-])c1ccc(Cl)nc1Nc1cc2c(-c3ccc4ccccc4c3)cccc2cn1 [8g, N‐(6‐Chloro‐3‐nitropyridin‐2‐yl)‐5‐(naphthalen‐2‐yl)isoquinolin‐3‐amine]	only unmodified USP7 and USP7asoc were detected	only unmodified USP7 and USP7asoc were detected	–	–	–
–0.13 ± 0.08 °C	–0.23 ± 0.06 °C	–	–0.10 ± 0.09 °C	–0.25 ± 0.09 °C	–	43.3 µM and 43 µM	48.2 ± 6.89	Cn1cc(-c2cccc3cnc(Nc4nc(F)ccc4[N+](=O)[O-])cc23)cn1 [7a, N‐(6‐Fluoro‐3‐nitropyridin‐2‐yl)‐5‐(1‐methyl‐1H‐pyrazol‐4‐yl)isoquinolin‐3‐amine]	–	–	mono‐arylated protein species as the main peak	single covalent modification as the main peak	–4 °C
